Measured values: US20120301562A1, “COMPOSITION FOR IMPROVING BLOOD CIRCULATION, CONTAINING EXTRACT OF LINDERA OBTUSILOBA AS ACTIVE INGREDIENT” (priority 2009, published 2012)

Assays:
[1] = system: platelet aggregation induced by collagen; assay: Inhibition of rat washed platelet aggregation induced by collagen (turbidimetric); type: cell-based; details: collagen 20 μg/mL, rat washed platelets
Description: (§1) Rats were paralyzed with ethyl ether and blood samples were collected from abdominal aorta with a syringe containing anticoagulant 0.15 M sodium citrate whose volume ratio is 1:9 compared with blood sample volume. Blood samples were centrifuged at 200×g for 10 min to obtain platelet rich plasma (PRP) as supernatant. PRP was centrifuged at 800×g for 15 min, and precipitated platelets were washed two times with a washing buffer (137 mM NaCl, 2.9 mM KCl, 1 mM MgCl2, 5 mM glucose, 12 mM NaHCO3, 0.34 mM Na2HPO4, 1 mM EDTA, 20 mM HEPES, 0.25% BSA, pH 7.4) and suspended in a suspension buffer (suspension buffer. 137 mM NaCl, 2.9 mM KCl, 1 mM MgCl2, 5 mM glucose, 12 mM NaHCO3, 0.34 mM Na2HPO4, 20 mM HEPES, 0.25% BSA, pH 7.4) to prepare washed platelets. Platelet numbers of washed platelets used in measurement of inhibitory effect on platelet aggregation were counted with a cell counter (cell counter. Hema-vet HV950FS, Drew Scientific, USA), and washed platelets were diluted with a buffer solution so as to adjust the platelet count to 3×10^8 platelets/mL. Since platelets are aggregated at low temperatures, the foregoing experiment was carried out at room temperature.
(§2) Inhibitory effect on rat platelet aggregation was measured by turbidimetric method using an aggrerometer (Chrono-Log Co., Ltd., Havertown, Pa., USA). Washed platelets were incubated at 37° C. for 3 min and treated with various concentrations of extracts. After 2 min, platelet aggregation was induced by a platelet aggregation-inducing substance, ADP (22 μM) or collagen (20 μg/mL). Platelet aggregation was measured for 10 min and the inhibition extent of platelet aggregation was calculated. Platelets which were not treated with extracts were used for control, and the inhibition extent of platelet aggregation was calculated using the following equation.
(§3) The inhibition extent of platelet aggregation=[(A−B)/A]×100 [Equation 1] • A: aggregation % of control • B: aggregation % of extract-treated platelets

[2] = system: platelet aggregation induced by ADP; assay: Inhibition of rat washed platelet aggregation induced by ADP (turbidimetric); type: cell-based; details: ADP 22 μM, rat washed platelets
Description: as §1, §2, §3

[3] = system: thromboembolism; assay: Inhibitory effect on thromboembolism induced by collagen and epinephrine injected into the tail vein; type: in vivo, mouse; details: oral administration 1 h prior to collagen + epinephrine injection, mice
Description: Experimental thrombosis induction in animals was based on Diminno's method. When a platelet aggregation inducer is injected into a tail vein of a mouse, a large amount of thrombus formation is induced in the pulmonary artery to kill the animal, and by observing whether this can be recovered or not, the inhibition extent of thrombus formation is measured. A mixture solution of collagen (Chrono-Log, […]) and epinephrine (Chrono-Log, 2 μg/mouse) was prepared to be contained in 200 μL of physiological saline as a platelet aggregation inducer and injected into the tail vein of mice. Extract suspension or physiological saline was orally administered in proportion to body weight at 1 h prior to injection of the platelet aggregation inducer to investigate antithrombotic effect. The antithrombotic effect was calculated as percentage of the number of experimental animals protected from hind leg paralysis or death induced by the injection of platelet aggregation inducer. Antithrombotic effect of extracts was determined by observing whether recovery from the persistence of paralysis for 15 min or longer after injection, death, or paralysis occurred or not. The survival rate (%) of each group was calculated with the following equation.
The survival rate (%)=(D/C)×100 [Equation 2] • C: the number of animals to which collagen was precisely injected. • D: the number of survived animals among animals to which collagen was precisely injected.

CC(=O)Oc1ccccc1C(=O)O [Aspirin]
inhibition at 100 µg/mL ([1]; final concentration 0.1 mg/mL): 18.5% | inhibition at 1000 µg/mL ([1]; final concentration 1 mg/mL): 51.9% | inhibition at 10000 µg/mL ([1]; final concentration 10 mg/mL): 94.4% | inhibition at 100 µg/mL ([2]; final concentration 0.1 mg/mL): 15.9% | inhibition at 1000 µg/mL ([2]; final concentration 1 mg/mL): 52.3% | inhibition at 10000 µg/mL ([2]; final concentration 10 mg/mL): 93.2% | 1st (survived animals/injected animals, D/C) ([3]; 1st experiment): 15/19 | 2nd (survived animals/injected animals, D/C) ([3]; 2nd experiment): 9/20 | 3rd (survived animals/injected animals, D/C) ([3]; 3rd experiment): 9/19 | Survival rate (%) ([3]; (D/C)×100): 56% | Sum (D/C) ([3]; sum of three experiments): 33/58
